Test results taken from patent US4088772A, “Methanodibenzocycloheptapyrroles” (E. I. Du Pont de Nemours and Company, priority 1975, dated 1978).
Counter-ions that a name gives are not always drawn. Like-named read-outs stand apart in the source and are kept apart here.

What was measured:
[1] = in vivo; conditions: mouse, in vivo, po
[2] = test system: female white mice; assay: animal or person; conditions: oral, mice; for ED50: Mus musculus, po
[3] = test system: phenylquinone-induced writhing; assay: Phenylquinone writhing test (analgesia); format: in vivo, mouse (Carworth CF1 S female); conditions: for ED50: Mus musculus
From the text: This mouse test is predictive of analgesic response in humans. [E. Siegmund, R. Cadmus and G. Lee, Proc. Soc.
ED50 values were obtained graphically from the data.

[4] = read-out: Catatonia ED50, Table 1
[5] = read-out: Exploratory Loss Visual ED50, Table 1
[6] = read-out: Muscle Tone ED50, Table 1
[7] = read-out: Reflexes Grip ED50, Table 1
[8] = read-out: Reflexes Lift ED50, Table 1
[9] = read-out: Reflexes Pinna ED50, Table 1
[10] = read-out: Catatonia ED50, Table III
[11] = read-out: Exploratory Loss Visual ED50, Table III
[12] = read-out: Muscle Tone ED50, Table III
[13] = read-out: Ptosis ED50, Table III
[14] = read-out: Reflexes Grip ED50, Table III
[15] = read-out: Reflexes Lift ED50, Table III
[16] = read-out: Reflexes Pinna ED50, Table III

CCOC(=O)CCCN1CC2c3ccccc3C3CC2(C1)c1ccccc13 (stereo not shown) [Example 11, Ethyl 2,3,8,12b-Tetrahydro-1H-3a,8-methanodibenzo-[3,4:6,7]cyclohepta[1,2-c]pyrrole-2-butyrate]
ED50 [1]: > 324 mg/kg
LD50 at 24 h [1]: > 324 mg/kg
ED50 [2, 4]: 100 mg/kg
ED50 [2, 5]: 100 mg/kg
ED50 [2, 6]: 200 mg/kg
ED50 ([2]; read-out: Ptosis ED50, Table 1): 100 mg/kg
ED50 [2, 7]: > 324 mg/kg
ED50 [2, 8]: > 324 mg/kg
ED50 [2, 9]: 100 mg/kg
ED50 ([3]; po, Table 1, mice): 26 mg/kg

[N-]=[N+]=Nc1ccc2c(c1)[C@]13C[C@H]2c2ccccc2[C@H]1CN(CC1CCCC1)C3 (relative stereo) [Example 82, 5-Azido-2-cyclopentylmethyl-2,3,8,12b-tetrahydro-1H-3a,8-methanodibenzo[3,4:6,7]cyclohepta[1,2-c]-pyrrole]
LD50 at 24 h [1]: > 324 mg/kg
ED50 [2, 10]: 60 mg/kg
ED50 [2, 11]: 7 mg/kg
ED50 [2, 12]: 20 mg/kg
ED50 [2, 13]: 7 mg/kg
ED50 [2, 14]: > 324 mg/kg
ED50 [2, 15]: 60 mg/kg
ED50 [2, 16]: 36 mg/kg
ED50 ([3]; po, Table III, mice): < 130 mg/kg

CN1CC2c3ccccc3C3CC2(C1)c1ccccc13 (stereo not shown) [Example 1, 2-Methyl-2,3,8,12b-tetrahydro-1H-3a,8-methanodibenzo[3,4:6,7]cyclohepta[1,2-c]pyrrole]
LD50 at 24 h [1]: 150 mg/kg
ED50 ([1]; Tremors ED50, Table 1, mice): 30 mg/kg
ED50 [2, 4]: 30 mg/kg
ED50 [2, 5]: 50 mg/kg
ED50 [2, 6]: 100 mg/kg
ED50 ([2]; read-out: Ptosis ED50, Table 1): 50 mg/kg
ED50 [2, 7]: 150 mg/kg
ED50 [2, 8]: 30 mg/kg
ED50 [2, 9]: 30 mg/kg
ED50 ([3]; Table 1, oral, mice): 5.1 mg/kg

c1ccc2c(c1)[C@@H]1C[C@@]3(CN(C4CC4)C[C@H]23)c2ccccc21 (relative stereo) [Example 46, 2-Cyclopropyl-2,3,8,12b-tetrahydro-1H-3a,8-methanodibenzo[3,4:6,7]cyclohepta[1,2-c]pyrrole]
LD50 at 24 h [1]: > 324 mg/kg
ED50 ([1]; Tremors ED50, Table 1, mice): > 324 mg/kg
ED50 [2, 4]: 200 mg/kg
ED50 [2, 5]: 200 mg/kg
ED50 [2, 6]: 200 mg/kg
ED50 ([2]; read-out: Ptosis ED50, Table 1): 60 mg/kg
ED50 [2, 7]: 300 mg/kg
ED50 [2, 8]: 200 mg/kg
ED50 [2, 9]: 300 mg/kg
ED50 ([3]; Table 1, oral, mice): 90 mg/kg

ON=Cc1ccc2c(c1)[C@]13C[C@H]2c2ccccc2[C@H]1CN(CC1CCCC1)C3 (relative stereo) [Example 83, 5-Formyl-2-cyclopentylmethyl-2,3,8,12b-tetrahydro-1H-3a,8-methanodibenzo[3,4:6,7]cyclohepta[1,2-c]pyrrole Oxime Hydrochloride]
LD50 at 24 h [1]: > 324 mg/kg
ED50 [2, 10]: 36 mg/kg
ED50 [2, 11]: 20 mg/kg
ED50 [2, 12]: 36 mg/kg
ED50 [2, 13]: 36 mg/kg
ED50 [2, 14]: > 324 mg/kg
ED50 [2, 15]: 60 mg/kg
ED50 [2, 16]: 20 mg/kg
ED50 ([3]; po, Table III, mice): 2.7 mg/kg

Fc1ccc2c(c1)[C@]13C[C@H]2c2ccccc2[C@H]1CN(CC1CCCC1)C3 (relative stereo) [Example 77, 5-Fluoro-2-cyclopentylmethyl-2,3,8,12b-tetrahydro-1H-3a,8-methanodibenzo[3,4:6,7]cyclohepta[1,2-c]pyrrole Hydrochloride]
LD50 at 24 h [1]: > 324 mg/kg
ED50 [2, 10]: 20 mg/kg
ED50 [2, 11]: 7 mg/kg
ED50 [2, 12]: 20 mg/kg
ED50 [2, 13]: 7 mg/kg
ED50 [2, 14]: > 324 mg/kg
ED50 [2, 15]: 20 mg/kg
ED50 [2, 16]: 36 mg/kg
ED50 ([3]; po, Table III, mice): < 130 mg/kg

c1ccc2c(c1)C1CC3(CN(CCCC4CCCC4)CC23)c2ccccc21 (stereo not shown) [Example 24, 2-(3-Cyclopentylpropyl)-2,3,8,12b-tetrahydro-1H-3a,8-methanodibenzo[3,4:6,7]cyclohepta[1,2-c]pyrrole]
ED50 [1]: > 324 mg/kg
LD50 at 24 h [1]: > 324 mg/kg
ED50 [2, 4]: 7 mg/kg
ED50 [2, 5]: 7 mg/kg
ED50 [2, 7]: > 324 mg/kg
ED50 [2, 8]: 17 mg/kg
ED50 [2, 9]: 17 mg/kg
ED50 ([3]; po, Table 1, mice): 6 mg/kg

FC(F)c1ccc2c(c1)[C@]13C[C@H]2c2ccccc2[C@H]1CN(CC1CCCC1)C3 (relative stereo) [Example 78, 5-Difluoromethyl-2-cyclopentylmethyl-2,3,8,12b-tetrahydro-1H-3a,8-methanodibenzo[3,4:6,7]cyclohepta[1,2c]pyrrole Hydrochloride]
LD50 at 24 h [1]: > 324 mg/kg
ED50 [2, 10]: 20 mg/kg
ED50 [2, 11]: 7 mg/kg
ED50 [2, 12]: 7 mg/kg
ED50 [2, 13]: < 4 mg/kg
ED50 [2, 14]: > 324 mg/kg
ED50 [2, 15]: 20 mg/kg
ED50 [2, 16]: 7 mg/kg
ED50 ([3]; po, Table III, mice): < 130 mg/kg

CCCCN1CC2c3ccccc3C3CC2(C1)c1ccccc13 (stereo not shown) [Example 13, 2-n-Butyl-2,3,8,12b-tetrahydro-1H-3a,8-methanodibenzo[3,4:6,7]cyclohepta[1,2-c]pyrrole]
LD50 at 24 h [1]: > 324 mg/kg
ED50 ([1]; Tremors ED50, Table 1, mice): 300 mg/kg
ED50 [2, 4]: 12 mg/kg
ED50 [2, 5]: 12 mg/kg
ED50 [2, 6]: 12 mg/kg
ED50 ([2]; read-out: Ptosis ED50, Table 1): 7 mg/kg
ED50 [2, 7]: 200 mg/kg
ED50 [2, 8]: 7 mg/kg
ED50 [2, 9]: ≤ 4 mg/kg
ED50 ([3]; Table 1, oral, mice): 10.5 mg/kg

CC(C)N1C[C@@H]2c3ccccc3[C@@H]3C[C@@]2(C1)c1ccccc13 (relative stereo) [Example 49, 2-Isopropyl-2,3,8,12b-tetrahydro-1H-3a, 8-methanodibenzo[3,4:6,7]cyclohepta[1,2-c]pyrrole]
LD50 at 24 h [1]: 200 mg/kg
ED50 ([1]; Tremors ED50, Table 1, mice): > 324 mg/kg
ED50 [2, 4]: 60 mg/kg
ED50 [2, 5]: 60 mg/kg
ED50 [2, 6]: 7 mg/kg
ED50 ([2]; read-out: Ptosis ED50, Table 1): 12 mg/kg
ED50 [2, 7]: 200 mg/kg
ED50 [2, 8]: 36 mg/kg
ED50 [2, 9]: 20 mg/kg
ED50 ([3]; Table 1, oral, mice): 10.8 mg/kg

C1=C(CN2CC3c4ccccc4C4CC3(C2)c2ccccc24)CCC1 (stereo not shown) [Example 21, 2-(1-Cyclopentenylmethyl)-2,3,8,12b-tetrahydro-1H-3a,8-methanodibenzo[3,4:6,7]cyclohepta[1,2-c]pyrrole]
ED50 [1]: > 324 mg/kg
LD50 at 24 h [1]: > 324 mg/kg
ED50 [2, 4]: 20 mg/kg
ED50 [2, 5]: 7 mg/kg
ED50 [2, 6]: 36 mg/kg
ED50 ([2]; read-out: Ptosis ED50, Table 1): 7 mg/kg
ED50 [2, 7]: 300 mg/kg
ED50 [2, 8]: 36 mg/kg
ED50 [2, 9]: 20 mg/kg
ED50 ([3]; po, Table 1, mice): 2.9 mg/kg

CC(=NO)c1ccc2c(c1)[C@]13C[C@H]2c2ccccc2[C@H]1CN(CC1CCCC1)C3 (relative stereo) [Example 71, 5-Acetyl-2-cyclopentylmethyl-2,3,8,12b-tetrahydro-1H-3a,8-methanodibenzo[3,4:6,7]cyclohepta[1,2-c]pyrrole Oxime Hydrochloride]
LD50 at 24 h [1]: > 324 mg/kg
ED50 [2, 10]: 100 mg/kg
ED50 [2, 11]: 7 mg/kg
ED50 [2, 12]: 36 mg/kg
ED50 [2, 13]: < 4 mg/kg
ED50 [2, 14]: 300 mg/kg
ED50 [2, 15]: 60 mg/kg
ED50 [2, 16]: 20 mg/kg
ED50 ([3]; po, Table III, mice): 21 mg/kg

c1ccc2c(c1)C1CC3(CN(CCC4CCCCC4)CC23)c2ccccc21 (stereo not shown) [Example 29, 2-(2-Cyclohexylethyl)-2,3,8,12b-tetrahydro-1H-3a,8-methanodibenzo[3,4:6,7]cyclohepta[1,2-c]pyrrole]
ED50 [1]: > 324 mg/kg
LD50 at 24 h [1]: > 324 mg/kg
ED50 [2, 4]: 21 mg/kg
ED50 [2, 5]: 24 mg/kg
ED50 [2, 6]: 24 mg/kg
ED50 ([2]; read-out: Ptosis ED50, Table 1): 17 mg/kg
ED50 [2, 7]: 290 mg/kg
ED50 [2, 8]: 78 mg/kg
ED50 [2, 9]: 50 mg/kg
ED50 ([3]; po, Table 1, mice): 28 mg/kg

c1ccc2c(c1)C1CC3(CN(CC4CCCC4)CC23)c2ccccc21 (single isomer, unassigned; (-)) [(-)-Cyclopentylmethyl, 2-Cyclopentylmethyl-2,3,8,12b-tetrahydro-trans-1H,-3a,8-methanodibenzo[3,4:6,7]cyclohepta[1,2-c]pyrrole]
ED50 [1]: > 324 mg/kg
LD50 at 24 h [1]: > 324 mg/kg
ED50 [2, 7]: 200 mg/kg
Catatonia ED50 ([2]; Table 1): 7 mg/kg
Exploratory Loss Visual ED50 ([2]; Table 1): < 4 mg/kg
Muscle Tone ED50 ([2]; Table 1): < 4 mg/kg
Ptosis ED50 ([2]; Table 1): < 4 mg/kg
Reflexes Lift ED50 ([2]; Table 1): 4 mg/kg
Reflexes Pinna ED50 ([2]; Table 1): 4 mg/kg
Phenylquinone Analgesia ED50 ([3]; Table 1, oral, mice): 1.2 mg/kg

CNC(=O)ON=Cc1ccc2c(c1)[C@]13C[C@H]2c2ccccc2[C@H]1CN(CC1CCCC1)C3 (relative stereo) [Example 84, 5-Formyl-2-cyclopentylmethyl-2,3,8,12b-tetrahydro-1H-3a,8-methanodibenzo[3,4:6,7]cyclohepta[1,2-c]pyrrole Oxime-O-(N-methylcarbamate) Hydrochloride]
LD50 at 24 h [1]: > 324 mg/kg
ED50 [2, 10]: 100 mg/kg
ED50 [2, 11]: 60 mg/kg
ED50 [2, 12]: 100 mg/kg
ED50 [2, 13]: 36 mg/kg
ED50 [2, 14]: > 324 mg/kg
ED50 [2, 15]: 200 mg/kg
ED50 [2, 16]: 100 mg/kg
ED50 ([3]; Table III, oral, mice): < 130 mg/kg

c1ccc2c(c1)C1CC3(CN(CCCC4CCCCC4)CC23)c2ccccc21 (stereo not shown) [Example 30, 2-(3-Cyclohexylpropyl)-2,3,8,12b-tetrahydro-1H-3a,8-methanodibenzo[3,4:6,7]cyclohepta[1,2-c]pyrrole]
ED50 [1]: > 324 mg/kg
LD50 at 24 h [1]: > 324 mg/kg
ED50 [2, 4]: 12 mg/kg
ED50 [2, 5]: 4 mg/kg
ED50 ([2]; read-out: Ptosis ED50, Table 1): 4 mg/kg
ED50 [2, 7]: 200 mg/kg
ED50 [2, 8]: 12 mg/kg
ED50 ([3]; po, Table 1, mice): 7 mg/kg

CC1CCC(CN2C[C@@H]3c4ccccc4[C@@H]4C[C@@]3(C2)c2ccccc24)C1 (stereo partly shown) [Example 52, 2-(3-Methylcyclopentylmethyl)-2,3,8,12b-tetrahydro-1H-3a,8-methanodibenzo[3,4:6,7]cyclohepta[1,2-c]-pyrrole]
ED50 [1]: > 324 mg/kg
LD50 at 24 h [1]: > 324 mg/kg
ED50 [2, 4]: 12 mg/kg
ED50 [2, 5]: 12 mg/kg
ED50 [2, 6]: 12 mg/kg
ED50 ([2]; read-out: Ptosis ED50, Table 1): 7 mg/kg
ED50 [2, 7]: 200 mg/kg
ED50 [2, 8]: 12 mg/kg
ED50 [2, 9]: 7 mg/kg
ED50 ([3]; po, Table 1, mice): 5 mg/kg
